The target of the test is T1, Human Polθ polymerase domain (aa1820-2590) (Homo sapiens, UniProt O75417).
T1 construct: Human Polθ polymerase domain (aa1820-2590) was expressed in E. coli; made in house; host or cells: E. coli
T1 sequence (O75417 1820-2590): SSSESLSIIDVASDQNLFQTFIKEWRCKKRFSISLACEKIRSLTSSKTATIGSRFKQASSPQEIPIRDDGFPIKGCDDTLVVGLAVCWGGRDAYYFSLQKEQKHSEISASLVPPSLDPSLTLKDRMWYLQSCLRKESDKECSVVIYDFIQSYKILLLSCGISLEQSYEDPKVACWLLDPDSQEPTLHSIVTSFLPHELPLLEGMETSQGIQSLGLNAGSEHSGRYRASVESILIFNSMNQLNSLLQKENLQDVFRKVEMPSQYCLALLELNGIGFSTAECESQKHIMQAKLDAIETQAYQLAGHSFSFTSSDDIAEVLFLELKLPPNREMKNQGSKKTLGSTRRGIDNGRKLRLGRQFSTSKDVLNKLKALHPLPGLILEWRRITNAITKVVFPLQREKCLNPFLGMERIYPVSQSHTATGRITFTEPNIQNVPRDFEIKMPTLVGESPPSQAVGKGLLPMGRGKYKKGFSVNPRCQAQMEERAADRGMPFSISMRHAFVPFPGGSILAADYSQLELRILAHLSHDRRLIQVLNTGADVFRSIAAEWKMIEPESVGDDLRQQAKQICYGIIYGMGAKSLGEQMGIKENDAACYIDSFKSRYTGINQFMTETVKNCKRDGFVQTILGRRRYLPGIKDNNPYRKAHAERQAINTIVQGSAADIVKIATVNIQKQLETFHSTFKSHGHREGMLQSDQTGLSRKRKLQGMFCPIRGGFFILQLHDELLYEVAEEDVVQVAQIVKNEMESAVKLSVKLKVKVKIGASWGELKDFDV
In words: Polθ Polymerase Domain Kinact/KI Assay (PicoGreen). Type of test: biochemical. To be noted: 0.8 nM Polθ, 100 nM DNA substrate, kobs vs [I] fit for 2-step covalent inhibitor. A digest of the protocol: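 PicoGreen fluorescence read-out of primer extension; progress curves per inhibitor concentration fitted for kobs, then kobs vs [I] fitted to a two-step covalent model to give Kinact and KI. Conditions: 0.8 nM enzyme, 100 nM DNA substrate, […].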
With `C=CC(=O)N1Cc2cc(CN3C[C@H]4CC(=O)N(c5cc(C(F)(F)F)cc(C)n5)[C@@H]4C(=O)N(C)c4cccc(C)c43)cnc2[C@H]1CC#N` (racemic) [Example 321b, 2-((R/S)-6-acryloyl-3-(((3aR,11aS)-6,10-dimethyl-1-(6-meth-yl-4-(trifluorometh-yl)pyridin-2-yl)-2,11-dioxo-1,2,3,3a, 4,10,11,11a-octa-hydro-5H-benzo[b]pyrrolo[2,3-f][1,4]diazocin-5-yl)meth-yl)-6,7-dihydro-5H-pyrrolo[3,4-b]pyr-idin-7-yl)acetonitrile], the Kinact/Kl was determined as 690000 M⁻¹ s⁻¹. Regarding `C=CC(=O)N1C[C@H](F)[C@@H](n2cc(CN3C[C@H]4CC(=O)N(c5cc(C(F)(F)F)cc(C)n5)[C@@H]4C(=O)N(C)c4cccc(C)c43)cn2)C1` (single isomer, unassigned) [Example 325a], the Kinact/Kl amounted to 1.25e+06 M⁻¹ s⁻¹.

The molecule “(3aR,11aS)-5-(2-((3S/R,9aS/R)-8-acryloyl-3-methyl-4-oxooctahydro-2H-pyrazino[1,2-a]pyrazin-2-yl)ethyl)-6-fluoro-10-methyl-1-(6-methyl-4-(trifluoromethyl)pyridin-2-yl) 1,3a,4,5,10,11a-hexahydro-2H-benzo[b]pyrrolo[2,3-f][1,4]diazocine-2,11(3H)-dione [Example 110]” registered a Kinact/Kl of 1e+06 M⁻¹ s⁻¹. Next, `C=CC(=O)N1CC(N2CCN(C(C)CN3C[C@H]4CC(=O)N(c5cc(C(F)(F)F)cc(C)n5)[C@@H]4C(=O)N(C)c4cccc(F)c43)CC2)C1` (stereo partly drawn) [Example 97, (3aR,11aS)-5-(2-(4-(1-acryloylazetidin-3-yl)piperazin-1-yl)propyl)-6-fluoro-10-methyl-1-(6-methyl-4-(trifluoromethyl)pyridin-2-yl)-1,3a,4,5,10,11a-hexahydro-2H-benzo[b]pyrrolo[2,3-f][1,4]diazocine-2,11(3H)-dione]: 1.18e+06 M⁻¹ s⁻¹; `C=C(CN(C)C)C(=O)N1CCC(CCCN2C[C@H]3CC(=O)N(c4cc(C(F)(F)F)cc(C)n4)[C@@H]3C(=O)N(C)c3cccc(Cl)c32)CC1` [Example 158, (3aR,11aS)-6-chloro-5-(3-(1-(2-((dimethylamino)methyl)acryloyl)piperidin-4-yl)propyl)-10-methyl-1-(6-methyl-4-(trifluoromethyl)pyridin-2-yl)-1,3a,4,5,10,11a-hexahydro-2H-benzo[b]pyrrolo[2,3-f][1,4]diazocine-2,11(3H)-dione]: 3.72e+06 M⁻¹ s⁻¹. Next, `C=CC(=O)N1Cc2cc(CN3C[C@H]4CC(=O)N(c5cc(C(F)(F)F)cc(C)n5)[C@@H]4C(=O)N(C)c4cccc(Cl)c43)cnc2C1CO` (single isomer, unassigned) [Example 230]: 1.01e+06 M⁻¹ s⁻¹; `C=C(CN(CC)CC)C(=O)N1CC(OCCCN2C[C@H]3CC(=O)N(c4cc(C(F)(F)F)cc(C)n4)[C@@H]3C(=O)N(C)c3cccc(Cl)c32)C1` [Example 166, (3aR, 11aS)-6-chloro-5-(3-((1-(2-((diethylamino)methyl)acryloyl)azetidin-3-yl)oxy)propyl)-10-methyl-1-(6-methyl-4-(trifluoromethyl)pyridin-2-yl)-1,3a,4,5,10,11a-hexahydro-2H-benzo[b]pyrrolo[2,3-f][1,4]diazocine-2,11(3H)-dione]: 3.41e+06 M⁻¹ s⁻¹. Next, `C=CC(=O)N1CC(n2cnc(CN3C[C@H]4CC(=O)N(c5cc(C(F)(F)F)cc(C)n5)[C@@H]4C(=O)N(C)c4cccc(Cl)c43)c2)C1` [Example 39, (3aR,11aS)-5-((1-(1-acryloylazetidin-3-yl)-1H-imidazol-4-yl)methyl)-6-chloro-10-methyl-1-(6-methyl-4-(trifluoromethyl)pyridin-2-yl)-1,3a,4,5,10,11a-hexahydro-2H-benzo[b]pyrrolo[2,3-f][1,4]diazocine-2,11(3H)-dione]: 3.42e+06 M⁻¹ s⁻¹.

Molecule `C=CC(=O)N1CC(N2CCCN(CCN3C[C@H]4CC(=O)N(c5cc(C(F)(F)F)cc(C)n5)[C@@H]4C(=O)N(C)c4cccc(F)c43)CC2)C1` [Example 3, (3aR,11aS)-5-(2-(4-(1-Acryloylazetidin-3-yl)-1,4-diazepan-1-yl)ethyl)-6-fluoro-10-methyl-1-(6-methyl-4-(trifluoromethyl)pyridin-2-yl)-1,3a,4,5,10,11a-hexahydro-2H-benzo[b]pyrrolo[2,3-f][1,4]diazocine-2,11(3H)-dione] returned a Kinact/Kl of 540000 M⁻¹ s⁻¹. Next, `C=C(CN(C)C)C(=O)N1Cc2ccc(CN3C[C@H]4CC(=O)N(c5cc(C(F)(F)F)cc(C)n5)[C@@H]4C(=O)N(C)c4cccc(Cl)c43)cc2C1` [Example 163, (3aR,11aS)-6-chloro-5-((2-(2-((dimethylamino)methyl)acryloyl)isoindolin-5-yl)methyl)-10-methyl-1-(6-methyl-4-(trifluoromethyl)pyridin-2-yl)-1,3a,4,5,10,11a-hexahydro-2H-benzo[b]pyrrolo[2,3-f][1,4]diazocine-2,11(3H)-dione]: 1.82e+06 M⁻¹ s⁻¹. As to `C=CC(=O)N1CCN(CCCN2C[C@H]3CC(=O)N(c4cc(C(F)(F)F)cc(C)n4)[C@@H]3C(=O)N(C)c3cccc(Cl)c32)CC1CC#N` (mixture of isomers) [Example 267b, 2-((R/S)-1-acryloyl-4-(3-((3aR,11aS)-6-chloro-10-methyl-1-(6-methyl-4-(trifluoromethyl)pyridin-2-yl)-2,11-dioxo-1,2,3,3a,4,10,11,11a-octahydro-5H-benzo[b]pyrrolo[2,3-f][1,4]diazocin-5-yl)propyl)piperazin-2-yl)acetonitrile], the Kinact/Kl came out at 3.03e+06 M⁻¹ s⁻¹. “(3aR,11aS)-5-(2-((3R/S,9aS/R)-8-acryloyl-3-methyl-4-oxooctahydro-2H-pyrazino[1,2-a]pyrazin-2-yl)ethyl)-6-fluoro-10-methyl-1-(6-methyl-4-(trifluoromethyl)pyridin-2-yl)-1,3a,4,5,10,11a-hexahydro-2H-benzo[b]pyrrolo[2,3-f][1,4]diazocine-2,11(3H)-dione [Example 107]” yielded a Kinact/Kl of 420000 M⁻¹ s⁻¹. Turning to `C/C=C(\CN(C)C)C(=O)N1CC(c2ccc(CN3C[C@H]4CC(=O)N(c5cc(C(F)(F)F)cc(C)n5)[C@@H]4C(=O)N(C)c4cccc(C)c43)cc2)C1` [Example 195, (3aR,11aS)-5-(4-(1-((E)-2-((dimeth-ylamino)methyl)-but-2-enoyl)azeti-din-3-yl)benzyl)-6,10-dimethyl-1-(6-methyl-4-(tri-fluoromethyl)pyr-idin-2-yl)-1,3a,4,5,10,11a-hexa-hydro-2H-benzo [b]pyrrolo[2,3-f] [1,4]diazocine-2,11(3H)-dione], the Kinact/Kl worked out at 5.22e+06 M⁻¹ s⁻¹. Take `C=C(CN(C)C)C(=O)NCc1ccc(CN2C[C@H]3CC(=O)N(c4cc(C(F)(F)F)cc(C)n4)[C@@H]3C(=O)N(C)c3cccc(C)c32)cc1` [Example 189, N-(4-(((3aR,11aS)-6,10-dimethyl-1-(6-methyl-4-(trifluoromethyl)-pyridin-2-yl)-2,11-dioxo-1,2,3,3a,4, 10,11,11a-octa-hydro-5H-benzo [b]pyrrolo[2,3-f] [1,4]diazocin-5-yl)-methyl)benzyl)-2-((dimethylamino)-methyl)acrylamide]: the Kinact/Kl is 3.35e+06 M⁻¹ s⁻¹. With `C=CC(=O)N1CCN2CCN(CCN3C[C@H]4CC(=O)N(c5cc(C(F)(F)F)cc(C)n5)[C@@H]4C(=O)N(C)c4cccc(Cl)c43)CC2C1` (stereo partly drawn) [Example 14, (3aR,11aS)-5-(2-(8-acryloyloctahydro-2H-pyrazino[1,2-a]pyrazin-2-yl)ethyl)-6-chloro-10-methyl-1-(6-methyl-4-(trifluoromethyl)pyridin-2-yl)-1,3a,4,5,10,11a-hexahydro-2H-benzo[b]pyrrolo[2,3-f][1,4]diazocine-2,11(3H)-dione], the Kinact/Kl was determined as 2.05e+06 M⁻¹ s⁻¹.

In the case of `C=CC(=O)N1Cc2cc(CN3C[C@H]4CC(=O)N(c5cc(C(F)(F)F)cc(C)n5)[C@@H]4C(=O)N(C)c4cccc(Cl)c43)nn2C[C@@H]1C` (racemic) [Example 294b, (3aR,11aS)-5-(((S/R)-5-acryloyl-6-methyl-4,5,6,7-tetrahydropyrazolo[1,5-a]pyrazin-2-yl)methyl)-6-chloro-10-methyl-1-(6-methyl-4-(trifluoromethyl)pyridin-2-yl)-1,3a,4,5,10,11a-hexahydro-2H-benzo[b]pyrrolo[2,3-f][1,4]diazocine-2,11(3H)-dione], the Kinact/Kl came to 2.48e+06 M⁻¹ s⁻¹.

As for `C=CC(=O)N1CC2(CN(CCN3C[C@H]4CC(=O)N(c5cc(C(F)(F)F)cc(C)n5)[C@@H]4C(=O)N(C)c4cccc(Cl)c43)CC(=O)N2C)C1` [Example 111, (3aR,11aS)-5-(2-(2-acryloyl-5-methyl-6-oxo-2,5,8-triazaspiro[3.5]nonan-8-yl)ethyl)-6-chloro-10-methyl-1-(6-methyl-4-(trifluoromethyl)pyridin-2-yl)-1,3a,4,5,10,11a-hexahydro-2H-benzo[b]pyrrolo[2,3-f][1,4]diazocine-2,11(3H)-dione], the Kinact/Kl came to 2.49e+06 M⁻¹ s⁻¹.

The record behind these values is US20250230165A1, “HETEROCYCLIC COMPOUNDS FOR USE IN THE TREATMENT OF CANCER” (ARTIOS PHARMA LIMITED, priority 2021, published 2025).
